In patent US20240181007A1, “COMPOSITIONS AND METHODS FOR TREATING PULMONARY HYPERTENSION” (Acceleron Pharma Inc., priority 2021, published 2024):

System: TAC-PH mice
Experiment: Transverse aortic constriction (TAC) induced PH mouse model, C57BL/6 (Example 9)
Format: in vivo
Settings: 10 mg/kg s.c. twice weekly for 4 weeks from day 14 after TAC, day 42, relative to TAC-PH/PBS
Text: The effects of an ActRIIA-mFc fusion polypeptide (SEQ ID NO: 56) was examined in a mouse model of left ventricular systolic dysfunction (also referred to as HErEF) of pulmonary hypertension (PH). In this model, C57BL/6 mice underwent transverse aortic constriction (TAC) to induce left heart failure, and right heart and pulmonary remodeling. See, e.g., Xiong P Y, et al. Hypertension 2018, 71(1):34-55 and Chen Y, et al. Hypertension 2012, 59(6):1170-1178.
Twenty-six C57/B6 male mice (10 wks old) underwent TAC surgery and ten age-matched animals underwent a mock surgical procedure (Sham) at day 0. Two weeks after the surgery, TAC-PH mice were randomized into two groups. i) fourteen mice were injected subcutaneously with vehicle control (phosphate buffered saline (PBS)), twice weekly for 4 weeks starting from day 14 after surgery, “TAC-PH/PBS”: and a ii) twelve mice were injected subcutaneously with ActRIIA-mFc at a dose of 10 mg/kg twice weekly for 4 weeks starting from day 14 after TAC surgery, “TAC-PH/ActRII-mFc”. At the end of the study, echocardiography and pressure-volume catheter were performed to measure left and right ventricular remodeling and functional changes before animals were euthanized for heart and lung collection. Hearts and lungs of each mouse were weighed, fixed in 10% formalin, embedded in paraffin, and sectioned for Masson's trichrome stain to assess fibrosis.
Prior to euthanasia, in vivo cardiac function was assessed by transthoracic echocardiography (Acuson P300, 18 MHz transducer; Siemens) in conscious mice. From left ventricle (LV) short axis view, M-mode echocardiogram was acquired to measure left ventricle end diastolic diameter (LVEDD), and left ventricle end systolic diameter (LVESD). Fractional shortening (FS) was calculated from the end-diastolic diameter (EDD) and end-systolic diameter (ESD) using the following equation: FS=100%×[(EDD−ESD)/EDD]. Early diastolic filling peak velocity (E), early diastolic mitral annular velocity (E′), and isovolumetric relaxation time (IVRT) were measured from the medial or septal wall at the mitral valve level from tissue Doppler image. LV diastolic function was assessed by measuring the E/E′ ratio and IVRT. Three to five beats were averaged for each mouse measurement. Tricuspid annular plane systolic excursion (TAPSE), a parameter of global right ventricular function, was also measured.
On day 42, mice were anesthetized by an intraperitoneal injection of ketamine/xylazine (100/5 mg/kg) to evaluate left and right ventricular function by Millar pressure-volume conductance catheter. The respiration was supported by a small animal ventilator. Thoracotomy was made through 4-5 intercostal space, and the heart was exposed. A pressure-volume catheter (1.0-Fr, PVR-1035, Millar Instruments, Houston, TX, USA) was inserted into the left ventricle and right ventricle from the apex. Ventricular pressure and volume were calculated with LabChart 7 software. Stroke work, ejection fraction, maximum and minimum rate of pressure development (+dp/dtm, −dp/dtm) were derived.

Substance: ActRIIA-mFc: ActRIIA-mFc fusion polypeptide (SEQ ID NO: 56); extracellular domain fused to murine IgG2a Fc domain with a linker
- cardiac hypertrophy, heart weight/body weight (HW/BW) (FIG. 15): significantly reduced cardiac hypertrophy
- fractional shortening (FS) (FIG. 16): elevated FS
- LV ejection fraction (FIG. 17): restored LV ejection fraction
- E/E′ ratio (FIG. 18): reduced E/E′ ratio
- isovolumetric relaxation time (IVRT) (FIG. 19): reduced IVRT
- right ventricle free wall thickness (RVFWT) (FIG. 20): significantly reduced elevated RVFWT
- tricuspid annular plane systolic excursion (TAPSE) (FIG. 21): increased reduced TAPSE
- RV stroke work (FIG. 22): reduced elevated RV stroke work
- minimum rate of pressure development in RV (−dp/dTmin) (FIG. 23): decreased increased RV−dp/dTmin
- lung weight (LW/TL) (FIG. 24): decreased lung weight
- lung fibrosis (FIG. 25): significantly reduced lung fibrosis
